Reference: publication PMC5838249, “The Apicomplexa-specific glucosamine-6-phosphate N-acetyltransferase gene family encodes a key enzyme for glycoconjugate synthesis with potential as therapeutic target” (Scientific Reports, 2018)

Columns and labels:
TgGNA1 = target: T1, TgGNA1 (Toxoplasma gondii, UniProt A0A7J6K6Y4); test: HPLC-MS/MS and colorimetric GNA1 assay; format: biochemical; details: […] AcCoA, […] GlcN-6P, […] Tris-HCl, […] NaCl, pH […], room temperature
T1 construct: gene TGRH88_028800
T1 sequence (A0A7J6K6Y4 1-516): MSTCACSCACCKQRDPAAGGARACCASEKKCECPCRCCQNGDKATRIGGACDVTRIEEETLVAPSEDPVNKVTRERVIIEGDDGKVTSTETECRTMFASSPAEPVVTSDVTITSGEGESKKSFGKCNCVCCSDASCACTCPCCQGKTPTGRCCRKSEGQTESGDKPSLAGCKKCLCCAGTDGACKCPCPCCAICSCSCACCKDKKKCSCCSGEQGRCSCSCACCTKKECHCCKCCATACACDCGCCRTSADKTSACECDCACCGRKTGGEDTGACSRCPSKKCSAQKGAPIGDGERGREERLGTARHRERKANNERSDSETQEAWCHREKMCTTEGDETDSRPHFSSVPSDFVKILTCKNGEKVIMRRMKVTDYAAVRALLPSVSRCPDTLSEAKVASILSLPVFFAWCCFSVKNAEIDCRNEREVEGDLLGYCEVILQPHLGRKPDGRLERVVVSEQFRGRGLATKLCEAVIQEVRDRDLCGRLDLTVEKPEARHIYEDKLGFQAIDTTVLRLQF

PfGNA1 = target: T2, PfGNA1 (Plasmodium falciparum, UniProt C6KTC5); test: HPLC-MS/MS GNA1 assay; format: biochemical; details: 500 µM AcCoA, 500 µM GlcN-6P, 25 mM Tris-HCl, 150 mM NaCl, pH 7.2, room temperature
T2 construct: gene PF3D7_0629000; deficiently expressed
T2 sequence (C6KTC5 1-291): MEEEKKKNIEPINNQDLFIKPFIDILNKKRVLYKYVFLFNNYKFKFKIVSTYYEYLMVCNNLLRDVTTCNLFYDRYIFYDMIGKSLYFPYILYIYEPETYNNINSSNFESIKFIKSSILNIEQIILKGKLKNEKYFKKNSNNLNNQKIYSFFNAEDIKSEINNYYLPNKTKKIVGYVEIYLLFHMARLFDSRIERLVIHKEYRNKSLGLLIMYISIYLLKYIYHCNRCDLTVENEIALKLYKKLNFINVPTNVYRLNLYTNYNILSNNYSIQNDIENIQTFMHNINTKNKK

CC(=O)SCCNC(=O)CCNC(=O)[C@H](O)C(C)(C)COP(=O)(O)OP(=O)(O)OC[C@H]1O[C@@H](n2cnc3c(N)ncnc32)[C@H](O)[C@@H]1OP(=O)(O)O [AcCoA]
HPLC-MS/MS and colorimetric GNA1 assay (TgGNA1): The enzymes used GlcN-6P as substrate and AcCoA as donor to produce GlcNAc-6P | HPLC-MS/MS GNA1 assay (PfGNA1): PfGNA1 and TaGNA1 were deficiently expressed, they also showed residual activity as detected by HPLC-MS/MS

N[C@H]1C(O)O[C@H](COP(=O)(O)O)[C@@H](O)[C@@H]1O (stereo partly shown) [GlcN-6P]
HPLC-MS/MS and colorimetric GNA1 assay (TgGNA1): TgGNA1 distinctly acetylated GlcN-6P | HPLC-MS/MS GNA1 assay (PfGNA1): PfGNA1 and TaGNA1 were deficiently expressed, they also showed residual activity as detected by HPLC-MS/MS
